# Measured values published in patent US12077503B2, “Substituted cyclic amides and their use as herbicides” (FMC CORPORATION, priority 2015, dated 2024).
# Legend:
# Type in all cases: in vivo
# [1] = tested on: blackgrass (Alopecurus myosuroides); assay: Test A postemergence; conditions: Alopecurus myosuroides, post-emergence, 240 h, Postemergence, read-out: Blackgrass plant response rating (0 to 100 scale); for pest or weed control at 125 g/ha: 125 g ai/ha, visual rating about 10 d after treatment; for pest or weed control at 31 g/ha: 31 g ai/ha, 0 is no effect, 100 is complete control
# Procedure, shortened: (§1)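 In a loam soil and sand blend, planted seeds got a preemergence directed soil spray, and young plants at the one- to two-leaf stage, 2–10 cm high, got a postemergence application; ~10 d greenhouse hold; injury rated visually, 0 = none, 100 = complete control.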
# [2] = tested on: barnyardgrass (Echinochloa crus-galli); assay: Test A postemergence; conditions: Echinochloa crus-galli, post-emergence, 240 h, Postemergence; for pest or weed control at 125 g/ha: 125 g ai/ha, visual rating about 10 d after treatment, read-out: Barnyardgrass plant response rating (0 to 100 scale, 0 no effect, 100 complete control); for pest or weed control at 31 g/ha: 31 g ai/ha, 0 is no effect, 100 is complete control, read-out: Barnyardgrass plant response rating (0 to 100 scale)
# Procedure, shortened: as §1
# Kochia (Kochia scoparia) [3] = assay: Test A postemergence; conditions: Bassia scoparia, post-emergence, 240 h, Postemergence, read-out: Kochia plant response rating (0 to 100 scale); for pest or weed control at 125 g/ha: 125 g ai/ha, visual rating about 10 d after treatment; for pest or weed control at 31 g/ha: 31 g ai/ha, 0 is no effect, 100 is complete control
# Procedure, shortened: as §1
# [4] = tested on: ryegrass, Italian (Italian ryegrass, Lolium multiflorum); assay: Test A postemergence; conditions: Lolium multiflorum, post-emergence, 240 h, Postemergence, read-out: Ryegrass, Italian plant response rating (0 to 100 scale); for pest or weed control at 125 g/ha: 125 g ai/ha, visual rating about 10 d after treatment; for pest or weed control at 31 g/ha: 31 g ai/ha, 0 is no effect, 100 is complete control
# Procedure, shortened: as §1
# [5] = tested on: wheat (Triticum aestivum); assay: Test A postemergence; conditions: Triticum aestivum, post-emergence, 240 h, Postemergence, read-out: Wheat plant response rating (0 to 100 scale); for plant injury at 125 g/ha: 125 g ai/ha, visual rating about 10 d after treatment; for plant injury at 31 g/ha: 31 g ai/ha, 0 is no effect, 100 is complete control
# Procedure, shortened: as §1
# [6] = tested on: Galium (catchweed bedstraw, Galium aparine); assay: Test A postemergence; conditions: Galium, post-emergence, 240 h, Postemergence, read-out: Galium plant response rating (0 to 100 scale); for pest or weed control at 125 g/ha: 125 g ai/ha, visual rating about 10 d after treatment; for pest or weed control at 31 g/ha: 31 g ai/ha, 0 is no effect, 100 is complete control
# Procedure, shortened: as §1
# [7] = tested on: ragweed (common ragweed, Ambrosia elatior); assay: Test A postemergence; conditions: Ambrosia artemisiifolia, post-emergence, 240 h, Postemergence, read-out: Ragweed plant response rating (0 to 100 scale); for pest or weed control at 125 g/ha: 125 g ai/ha, visual rating about 10 d after treatment; for pest or weed control at 31 g/ha: 31 g ai/ha, 0 is no effect, 100 is complete control
# Procedure, shortened: as §1
# [8] = tested on: giant foxtail (Setaria faberii); assay: Test A postemergence; conditions: Setaria faberi, post-emergence, 240 h, Postemergence, read-out: Foxtail, Giant plant response rating (0 to 100 scale); for pest or weed control at 125 g/ha: 125 g ai/ha, visual rating about 10 d after treatment; for pest or weed control at 31 g/ha: 31 g ai/ha, 0 is no effect, 100 is complete control
# Procedure, shortened: as §1
# [9] = tested on: pigweed (Amaranthus retroflexus); assay: Test A postemergence; conditions: Amaranthus retroflexus, post-emergence, 240 h, Postemergence, read-out: Pigweed plant response rating (0 to 100 scale); for pest or weed control at 125 g/ha: 125 g ai/ha, visual rating about 10 d after treatment; for pest or weed control at 31 g/ha: 31 g ai/ha, 0 is no effect, 100 is complete control
# Procedure, shortened: as §1
# corn (Zea mays) = assay: Test A postemergence; conditions: Zea mays, post-emergence, 240 h, Postemergence, read-out: Corn plant response rating (0 to 100 scale); for plant injury at 125 g/ha: 125 g ai/ha, visual rating about 10 d after treatment; for plant injury at 31 g/ha: 31 g ai/ha, 0 is no effect, 100 is complete control
# Procedure, shortened: as §1
# [10] = tested on: barnyardgrass (Echinochloa crus-galli); assay: Test A preemergence; conditions: Echinochloa crus-galli, pre-emergence, 240 h, 0 to 100 scale where 0 is no effect and 100 is complete control, read-out: Barnyardgrass plant response rating; for pest or weed control at 31 g/ha: 31 g ai/ha, Preemergence; for pest or weed control at 125 g/ha: 125 g ai/ha, preemergence, visual injury rating, approximately 10 d
# Procedure, shortened: as §1
# Kochia (Kochia scoparia) [11] = assay: Test A preemergence; conditions: Bassia scoparia, pre-emergence, 240 h, 0 to 100 scale where 0 is no effect and 100 is complete control, read-out: Kochia plant response rating; for pest or weed control at 31 g/ha: 31 g ai/ha, Preemergence; for pest or weed control at 125 g/ha: 125 g ai/ha, preemergence, visual injury rating, approximately 10 d
# Procedure, shortened: as §1
# [12] = tested on: ryegrass, Italian (Italian ryegrass, Lolium multiflorum); assay: Test A preemergence; conditions: Lolium multiflorum, pre-emergence, 240 h, 0 to 100 scale where 0 is no effect and 100 is complete control, read-out: Ryegrass, Italian plant response rating; for pest or weed control at 31 g/ha: 31 g ai/ha, Preemergence; for pest or weed control at 125 g/ha: 125 g ai/ha, preemergence, visual injury rating, approximately 10 d
# Procedure, shortened: as §1
# [13] = tested on: ragweed (common ragweed, Ambrosia elatior); assay: Test A preemergence; conditions: Ambrosia artemisiifolia, pre-emergence, 240 h, 0 to 100 scale where 0 is no effect and 100 is complete control, read-out: Ragweed plant response rating; for pest or weed control at 31 g/ha: 31 g ai/ha, Preemergence; for pest or weed control at 125 g/ha: 125 g ai/ha, preemergence, visual injury rating, approximately 10 d
# Procedure, shortened: as §1
# [14] = tested on: giant foxtail (Setaria faberii); assay: Test A preemergence; conditions: Setaria faberi, pre-emergence, 240 h, 0 to 100 scale where 0 is no effect and 100 is complete control, read-out: Foxtail, Giant plant response rating; for pest or weed control at 31 g/ha: 31 g ai/ha, Preemergence; for pest or weed control at 125 g/ha: 125 g ai/ha, preemergence, visual injury rating, approximately 10 d
# Procedure, shortened: as §1
# [15] = tested on: pigweed (Amaranthus retroflexus); assay: Test A preemergence; conditions: Amaranthus retroflexus, pre-emergence, 240 h, 0 to 100 scale where 0 is no effect and 100 is complete control, read-out: Pigweed plant response rating; for pest or weed control at 31 g/ha: 31 g ai/ha, Preemergence; for pest or weed control at 125 g/ha: 125 g ai/ha, preemergence, visual injury rating, approximately 10 d
# rice (Oryra sativa) = assay: Test B flooded paddy test; conditions: Oryza sativa, 250 g ai/ha, Flood; 0 to 100 scale where 0 is no effect and 100 is complete control; read-out: Rice plant response rating
# Procedure, shortened: (§2)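 Plants at 2-leaf stage flooded to 3 cm above soil, with compounds applied directly to paddy water and that depth maintained. Plants kept in greenhouse 13–15 d. Visual rating versus controls on a 0 (no effect) to 100 (complete control) scale.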
# [16] = tested on: barnyardgrass (Echinochloa crus-galli); assay: Test B flooded paddy test; conditions: Echinochloa crus-galli, 250 g ai/ha, Flood; 0 to 100 scale where 0 is no effect and 100 is complete control; read-out: Barnyardgrass plant response rating
# Procedure, shortened: as §2
# [17] = tested on: sedge, umbrella (small-flower umbrella sedge, Cyperus difformis); assay: Test B flooded paddy test; conditions: Cyperus difformis, 250 g ai/ha, Flood; 0 to 100 scale where 0 is no effect and 100 is complete control; read-out: Sedge, Umbrella plant response rating
# Procedure, shortened: as §2
# [18] = tested on: ducksalad (Heteranthera limosa); assay: Test B flooded paddy test; conditions: Heteranthera limosa, 250 g ai/ha, Flood; 0 to 100 scale where 0 is no effect and 100 is complete control; read-out: Ducksalad plant response rating
# Procedure, shortened: as §2
SMILES,pest or weed control at 125 g/ha [1],pest or weed control at 31 g/ha [1],pest or weed control at 125 g/ha [2],pest or weed control at 31 g/ha [2],pest or weed control at 125 g/ha (Kochia (Kochia scoparia) [3]),pest or weed control at 31 g/ha (Kochia (Kochia scoparia) [3]),pest or weed control at 125 g/ha [4],pest or weed control at 31 g/ha [4],plant injury at 125 g/ha [5],plant injury at 31 g/ha [5],pest or weed control at 125 g/ha [6],pest or weed control at 31 g/ha [6],pest or weed control at 125 g/ha [7],pest or weed control at 31 g/ha [7],pest or weed control at 125 g/ha [8],pest or weed control at 31 g/ha [8],pest or weed control at 125 g/ha [9],pest or weed control at 31 g/ha [9],plant injury at 125 g/ha (corn (Zea mays)),plant injury at 31 g/ha (corn (Zea mays)),further results
CN1C[C@H](c2csc3c2CCOC3)[C@@H](C(=O)Nc2cccc(F)c2F)C1=O [Compound 1268],0%,0%,90%,80%,0%,0%,20%,0%,0%,0%,0%,0%,0%,0%,90%,50%,0%,0%,0%,0%,pest or weed control at 31 g/ha [10]: 90%; pest or weed control at 125 g/ha [10]: 90%; pest or weed control at 31 g/ha (Kochia (Kochia scoparia) [11]): 0%; pest or weed control at 125 g/ha (Kochia (Kochia scoparia) [11]): 0%; pest or weed control at 31 g/ha [12]: 0%; pest or weed control at 125 g/ha [12]: 20%; pest or weed control at 31 g/ha [13]: 0%; pest or weed control at 125 g/ha [13]: 0%; pest or weed control at 31 g/ha [14]: 70%; pest or weed control at 125 g/ha [14]: 90%; pest or weed control at 31 g/ha [15]: 0%; pest or weed control at 125 g/ha [15]: 0%; pest or weed control at 250 g/ha (rice (Oryra sativa)): 20%; pest or weed control at 250 g/ha [16]: 85%; pest or weed control at 250 g/ha [17]: 0%; pest or weed control at 250 g/ha [18]: 95%
CN1C[C@H](c2ccc(C(F)F)cc2)[C@@H](C(=O)Nc2cccnc2F)C1=O [Compound 1274],30%,0%,90%,50%,70%,50%,20%,0%,60%,20%,60%,50%,30%,0%,90%,50%,20%,0%,30%,30%,pest or weed control at 31 g/ha [10]: 30%; pest or weed control at 125 g/ha [10]: 90%; pest or weed control at 31 g/ha (Kochia (Kochia scoparia) [11]): 30%; pest or weed control at 125 g/ha (Kochia (Kochia scoparia) [11]): 70%; pest or weed control at 31 g/ha [12]: 0%; pest or weed control at 125 g/ha [12]: 20%; pest or weed control at 31 g/ha [13]: 20%; pest or weed control at 125 g/ha [13]: 80%; pest or weed control at 31 g/ha [14]: 80%; pest or weed control at 125 g/ha [14]: 90%; pest or weed control at 31 g/ha [15]: 30%; pest or weed control at 125 g/ha [15]: 70%; pest or weed control at 250 g/ha (rice (Oryra sativa)): 0%; pest or weed control at 250 g/ha [16]: 20%; pest or weed control at 250 g/ha [17]: 0%; pest or weed control at 250 g/ha [18]: 100%
